Experimental data taken from publication PMC9322189, “Development of a Personalized Tumor Neoantigen Based Vaccine Formulation (FRAME-001) for Use in a Phase II Trial for the Treatment of Advanced Non-Small Cell Lung Cancer” (Pharmaceutics, 2022).

Tests used:
Assay type in all cases: physicochemical
[1] = In-use stability of thawed aqueous peptide mixtures at room temperature, UPLC-MS; conditions: 4 h room temperature
[2] = Filter experiment: peptide adsorption to the 0.22 µm sterilization filter, UPLC-MS; conditions: unfiltered sample
[3] = Release testing and long-term (frozen) stability of aqueous peptide mixtures (143 µg/mL per peptide in PBS 10 mM pH 7.0), UPLC-MS

For “CKECGRPLDVVHTLLHIRAFMLIKNPMNVK [FRM001P12, neoantigen peptide, in FRM001-M2]”, the Peptide peak ratio ([1]; in FRM001-M2, 2 w −25 °C) was 23.0%, the Peptide peak ratio ([1]; in FRM001-M2, 4 w −25 °C) was 20.5% and the Peptide peak ratio ([1]; in FRM001-M2, 8 w −25 °C) was 21.0%. It also gave a Peptide peak ratio ([1]; in FRM001-M2, 8 w −80 °C) of 21.0%, a Peptide peak ratio ([1]; in FRM001-M2, 12 w −25 °C) of 19.7% and a Peptide peak ratio ([1]; in FRM001-M2, 12 w −80 °C) of 20.6%. For the same sequence, the Peptide peak ratio ([1]; in FRM001-M2, 16 w −25 °C) was 18.9%, the Peptide peak ratio ([1]; in FRM001-M2, 16 w −80 °C) was 20.0% and the Peptide peak ratio ([1]; in FRM001-M2, 32 w −25 °C) was 22.7%. The Peptide peak ratio ([1]; in FRM001-M2, 32 w −80 °C) was 24.2%, the Peak ratio ([2]; in FRM001M2) was 27.7% and the Peptide peak ratio ([3]; in FRM001-M2, 2 w −25 °C) was 22.0%. For the same sequence, the Peptide peak ratio ([3]; in FRM001-M2, 4 w −25 °C) was 19.5%, the Peptide peak ratio ([3]; in FRM001-M2, 8 w −25 °C) was 19.6% and the Peptide peak ratio ([3]; in FRM001-M2, 8 w −80 °C) was 20.5%. For the same sequence, the Peptide peak ratio ([3]; in FRM001-M2, 12 w −25 °C) was 18.1%, the Peptide peak ratio ([3]; in FRM001-M2, 12 w −80 °C) was 20.0% and the Peptide peak ratio ([3]; in FRM001-M2, 16 w −25 °C) was 17.9%. The Peptide peak ratio ([3]; in FRM001-M2, 16 w −80 °C) was 19.5%, the Peptide peak ratio ([3]; in FRM001-M2, 32 w −25 °C) was 20.3% and the Peptide peak ratio ([3]; in FRM001-M2, 32 w −80 °C) was 22.6%. For the same sequence, the Peptide peak ratio ([3]; in FRM001-M2, t = 0 w) was 24.6%.

In the case of “GCHLFSKRKCSQNKQSKRGKSRFYLSWRPL [FRM001P01, neoantigen peptide of lung tumor LUN021, in FRM001-M1 and FRM001-M4]”, the Peptide peak ratio ([1]; in FRM001-M1, 2 w −25 °C) is reported as 15.2%, the Peptide peak ratio ([1]; in FRM001-M1, 4 w −25 °C) is reported as 14.8% and the Peptide peak ratio ([1]; in FRM001-M1, 8 w −25 °C) is reported as 15.3%. For the same sequence, the Peptide peak ratio ([1]; in FRM001-M1, 8 w −80 °C) was 15.2%, the Peptide peak ratio ([1]; in FRM001-M1, 12 w −25 °C) was 15.3% and the Peptide peak ratio ([1]; in FRM001-M1, 12 w −80 °C) was 15.3%. The Peptide peak ratio ([1]; in FRM001-M1, 16 w −25 °C) was 15.5%, the Peptide peak ratio ([1]; in FRM001-M1, 16 w −80 °C) was 15.6% and the Peptide peak ratio ([1]; in FRM001-M1, 32 w −25 °C) was 14.1%. The Peptide peak ratio ([1]; in FRM001-M1, 32 w −80 °C) was 14.1%, the Peptide peak ratio ([1]; in FRM001-M4, 2 w −25 °C) was 14.7% and the Peptide peak ratio ([1]; in FRM001-M4, 4 w −25 °C) was 15.5%. For the same sequence, the Peptide peak ratio ([1]; in FRM001-M4, 8 w −25 °C) was 15.3%, the Peptide peak ratio ([1]; in FRM001-M4, 8 w −80 °C) was 15.5% and the Peptide peak ratio ([1]; in FRM001-M4, 12 w −25 °C) was 14.8%. The Peptide peak ratio ([1]; in FRM001-M4, 12 w −80 °C) was 15.1%, the Peptide peak ratio ([1]; in FRM001-M4, 16 w −25 °C) was 12.4% and the Peptide peak ratio ([1]; in FRM001-M4, 16 w −80 °C) was 12.4%. It also gave a Peptide peak ratio ([1]; in FRM001-M4, 32 w −25 °C) of 13.1%, a Peptide peak ratio ([1]; in FRM001-M4, 32 w −80 °C) of 14.9% and a Peak ratio ([2]; in FRM001M1) of 14.8%. For the same sequence, the Peak ratio ([2]; in FRM001M4) was 14.9%, the Peptide peak ratio ([3]; in FRM001-M1, 2 w −25 °C) was 15.0% and the Peptide peak ratio ([3]; in FRM001-M1, 4 w −25 °C) was 14.6%. For the same sequence, the Peptide peak ratio ([3]; in FRM001-M1, 8 w −25 °C) was 15.2%, the Peptide peak ratio ([3]; in FRM001-M1, 8 w −80 °C) was 15.0% and the Peptide peak ratio ([3]; in FRM001-M1, 12 w −25 °C) was 15.9%. For the same sequence, the Peptide peak ratio ([3]; in FRM001-M1, 12 w −80 °C) was 15.5%, the Peptide peak ratio ([3]; in FRM001-M1, 16 w −25 °C) was 15.4% and the Peptide peak ratio ([3]; in FRM001-M1, 16 w −80 °C) was 15.3%. For the same sequence, the Peptide peak ratio ([3]; in FRM001-M1, 32 w −25 °C) was 13.4%, the Peptide peak ratio ([3]; in FRM001-M1, 32 w −80 °C) was 14.2% and the Peptide peak ratio ([3]; in FRM001-M1, t = 0 w, % area of peptide peak of sum of the six peptide peaks) was 15.0%. The Peptide peak ratio ([3]; in FRM001-M4, 2 w −25 °C) was 14.5%, the Peptide peak ratio ([3]; in FRM001-M4, 4 w −25 °C) was 15.4% and the Peptide peak ratio ([3]; in FRM001-M4, 8 w −25 °C) was 15.1%. For the same sequence, the Peptide peak ratio ([3]; in FRM001-M4, 8 w −80 °C) was 15.2%, the Peptide peak ratio ([3]; in FRM001-M4, 12 w −25 °C) was 15.1% and the Peptide peak ratio ([3]; in FRM001-M4, 12 w −80 °C) was 14.8%. For the same sequence, the Peptide peak ratio ([3]; in FRM001-M4, 16 w −25 °C) was 12.5%, the Peptide peak ratio ([3]; in FRM001-M4, 16 w −80 °C) was 12.5% and the Peptide peak ratio ([3]; in FRM001-M4, 32 w −25 °C) was 12.9%. For the same sequence, the Peptide peak ratio ([3]; in FRM001-M4, 32 w −80 °C) was 14.7% and the Peptide peak ratio ([3]; in FRM001-M4, t = 0 w) was 14.4%.

“GVDYASCGHLVKIWPRRMNRSDVCTVWS [FRM001P13, neoantigen peptide, in FRM001-M4]” gave a Peptide peak ratio ([1]; in FRM001-M4, 2 w −25 °C) of 13.4%, a Peptide peak ratio ([1]; in FRM001-M4, 4 w −25 °C) of 14.5% and a Peptide peak ratio ([1]; in FRM001-M4, 8 w −25 °C) of 14.4%. The Peptide peak ratio ([1]; in FRM001-M4, 8 w −80 °C) was 14.7%, the Peptide peak ratio ([1]; in FRM001-M4, 12 w −25 °C) was 14.6% and the Peptide peak ratio ([1]; in FRM001-M4, 12 w −80 °C) was 14.4%. It also gave a Peptide peak ratio ([1]; in FRM001-M4, 16 w −25 °C) of 13.1%, a Peptide peak ratio ([1]; in FRM001-M4, 16 w −80 °C) of 13.0% and a Peptide peak ratio ([1]; in FRM001-M4, 32 w −25 °C) of 13.5%. It also gave a Peptide peak ratio ([1]; in FRM001-M4, 32 w −80 °C) of 13.4%, a Peak ratio ([2]; in FRM001M4) of 14.1% and a Peptide peak ratio ([3]; in FRM001-M4, 2 w −25 °C) of 13.6%. It also gave a Peptide peak ratio ([3]; in FRM001-M4, 4 w −25 °C) of 14.6%, a Peptide peak ratio ([3]; in FRM001-M4, 8 w −25 °C) of 14.7% and a Peptide peak ratio ([3]; in FRM001-M4, 8 w −80 °C) of 14.9%. The Peptide peak ratio ([3]; in FRM001-M4, 12 w −25 °C) was 14.4%, the Peptide peak ratio ([3]; in FRM001-M4, 12 w −80 °C) was 14.6% and the Peptide peak ratio ([3]; in FRM001-M4, 16 w −25 °C) was 13.3%. For the same sequence, the Peptide peak ratio ([3]; in FRM001-M4, 16 w −80 °C) was 13.1%, the Peptide peak ratio ([3]; in FRM001-M4, 32 w −25 °C) was 13.6% and the Peptide peak ratio ([3]; in FRM001-M4, 32 w −80 °C) was 13.9%. The Peptide peak ratio ([3]; in FRM001-M4, t = 0 w) was 14.2%.

Sequence “NTDPSCSCVTPLDFNHCLKNREDNGLPMLS [FRM001P10, neoantigen peptide, in FRM001-M2]” has a Peptide peak ratio ([1]; in FRM001-M2, 2 w −25 °C) of 8.9%, a Peptide peak ratio ([1]; in FRM001-M2, 4 w −25 °C) of 12.1% and a Peptide peak ratio ([1]; in FRM001-M2, 8 w −25 °C) of 12.1%. For the same sequence, the Peptide peak ratio ([1]; in FRM001-M2, 8 w −80 °C) was 12.0%, the Peptide peak ratio ([1]; in FRM001-M2, 12 w −25 °C) was 13.7% and the Peptide peak ratio ([1]; in FRM001-M2, 12 w −80 °C) was 13.2%. It also gave a Peptide peak ratio ([1]; in FRM001-M2, 16 w −25 °C) of 10.2%, a Peptide peak ratio ([1]; in FRM001-M2, 16 w −80 °C) of 10.1% and a Peptide peak ratio ([1]; in FRM001-M2, 32 w −25 °C) of 9.6%. It also gave a Peptide peak ratio ([1]; in FRM001-M2, 32 w −80 °C) of 9.3%, a Peak ratio ([2]; in FRM001M2) of 6.1% and a Peptide peak ratio ([3]; in FRM001-M2, 2 w −25 °C) of 7.2%. It also gave a Peptide peak ratio ([3]; in FRM001-M2, 4 w −25 °C) of 11.5%, a Peptide peak ratio ([3]; in FRM001-M2, 8 w −25 °C) of 11.0% and a Peptide peak ratio ([3]; in FRM001-M2, 8 w −80 °C) of 12.9%. For the same sequence, the Peptide peak ratio ([3]; in FRM001-M2, 12 w −25 °C) was 14.2%, the Peptide peak ratio ([3]; in FRM001-M2, 12 w −80 °C) was 13.8% and the Peptide peak ratio ([3]; in FRM001-M2, 16 w −25 °C) was 9.6%. For the same sequence, the Peptide peak ratio ([3]; in FRM001-M2, 16 w −80 °C) was 10.4%, the Peptide peak ratio ([3]; in FRM001-M2, 32 w −25 °C) was 10.8% and the Peptide peak ratio ([3]; in FRM001-M2, 32 w −80 °C) was 10.7%. For the same sequence, the Peptide peak ratio ([3]; in FRM001-M2, t = 0 w) was 9.1%.
